Consider 23 molecules from patent US7928104B2, “7-phenylalkyl substituted 2-quinolinones and 2-quinoxalinones as poly(ADP-ribose) polymerase inhibitors” (priority 2003, dated 2011).

Series [1] concerns the target T1, PARP-1 enzyme (Homo sapiens, UniProt P09874).
T1 construct: made in house
Briefly: In vitro Scintillation Proximity Assay (SPA) for PARP-1 inhibitory activity. It is filed as biochemical. The following applies: nicked DNA activated PARP-1, [3H]-NAD+, biotinylated histones; read-out: In vitro SPA pIC50 (converted). On the procedure: Compounds of the present invention were tested in an in vitro assay based on SPA technology (proprietary to Amersham Pharmacia Biotech).
In principle, the assay relies upon the well established SPA technology for the detection of poly(ADP-ribosyl)ation of biotinylated target proteins, i.e histones. This ribosylation is induced using nicked DNA activated PARP-1 enzyme and [^3H]-nicotinamide adenine dinucleotide ([^3H]-NAD^+) as ADP-ribosyl donor.
As inducer of PARP-1 enzyme activity, nicked DNA was prepared. For this, 25 mg of DNA (supplier: Sigma) was dissolved in 25 ml DNAse buffer (10 mM Tris-HCl, pH 7.4; 0.5 mg/ml Bovine Serum Albumine (BSA); 5 mM MgCl2.6H2O and 1 mM KCl) to which 50 μl DNAse solution (1 mg/ml in 0.15 M NaCl) was added. After an incubation of 90 min. at 37° C., the reaction was terminated by adding 1.45 g NaCl, followed by a further incubation at 58° C. for 15 min. The reaction mixture was cooled on ice and dialysed at 4° C. for respectively 1.5 and 2 hours against 1.5 l of 0.2 M KCl, and twice against 1.5 l of 0.01 M KCl for 1.5 and 2 h respectively. The mixture was aliquoted and stored at −20° C. Histones (1 mg/ml, type II-A, supplier: Sigma) were biotinylated using the biotinylation kit of Amersham and stored aliquoted at −20° C. A stock solution of 100 mg/ml SPA poly(vinyl toluene) (PVT) beads (supplier: Amersham) was made in PBS. A stock solution of [^3H]-NAD^+ was made by adding 120 μl of [^3H]-NAD^+ (0.1 mCi/ml, supplier: NEN) to 6 ml incubation buffer (50 mM Tris/HCl, pH 8; 0.2 mM DTT; 4 mM MgCl2). A solution of 4 mM NAD^+ (supplier: Roche) was made in incubation buffer (from a 100 mM stock solution in water stored at −20° C.). The PARP-1 enzyme was produced using art known techniques, i.e. cloning and expression of the protein starting from human liver cDNA. Information concerning the used protein sequence of the PARP-1 enzyme including literature references can be found in the Swiss-Prot database under primary accession number P09874. Biotinylated histones and PVT-SPA beads were mixed and pre-incubated for 30 min. at room temperature. PARP-1 enzyme (concentration was lot dependent) was mixed with the nicked DNA and the mixture was pre-incubated for 30 min. at 4° C. Equal parts of this histones/PVT-SPA beads solution and PARP-1 enzyme/DNA solution were mixed and 75 μl of this mixture together with 1 μl of compound in DMSO and 25 μl of [^3H]-NAD^+ was added per well into a 96-well microtiterplate. The final concentrations in the incubation mixture were 2 μg/ml for the biotinylated histones, 2 mg/ml for the PVT-SPA beads, 2 μg/ml for the nicked DNA and between 5-10 μg/ml for the PARP-1 enzyme. After incubation of the mixture for 15 min. at room temperature, the reaction was terminated by adding 100 μl of 4 mM NAD^+ in incubation buffer (final concentration 2 mM) and plates were mixed. The beads were allowed to sediment for at least 15 min. and plates transferred to a TopCountNXT™ (Packard) for scintillation counting, values were expressed as counts per minute (cpm). For each experiment, controls (containing PARP-1 enzyme and DMSO without compound), a blank incubation (containing DMSO but no PARP-1 enzyme or compound) and samples (containing PARP-1 enzyme and compound dissolved in DMSO) were run in parallel. All compounds tested were dissolved and eventually further diluted in DMSO. […] In each test, the blank value was subtracted from both the control and the sample values. The control sample represented maximal PARP-1 enzyme activity. For each sample, the amount of cpm was expressed as a percentage of the mean cpm value of the controls. When appropriate, IC50-values (concentration of the drug, needed to reduce the PARP-1 enzyme activity to 50% of the control) were computed using linear interpolation between the experimental points just above and below the 50% level. Herein the effects of test compounds are expressed as pIC50 (the negative log value of the IC50-value). […]

Series [2] deals with T1, PARP-1 enzyme. Briefly: In vitro filtration assay for PARP-1 inhibitory activity. It counts as biochemical. The following applies: nicked DNA activated PARP-1, [32P]-NAD+, histones; read-out: In vitro filtration assay pIC50 (converted). On the procedure:
Compounds of the present invention were tested in an in vitro filtration assay assessing PARP-1 activity (triggered in the presence of nicked DNA) by means of its histone poly(ADP-ribosyl)ation activity using [^32P]-NAD as ADP-ribosyl donor. The radioactive ribosylated histones were precipitated by trichloroacetic acid (TCA) in 96-well filterplates and the incorporated [^32P] measured using a scintillation counter
A mixture of histones (stock solution: 5 mg/ml in H2O), NAD^+ (stock solution: 100 mM in H2O), and [^32P]-NAD^+ in incubation buffer (50 mM Tris/HCl, pH 8; 0.2 mM DTT; 4 mM MgCl2) was made. A mixture of the PARP-1 enzyme (5-10 μg/ml) and nicked DNA was also made. The nicked DNA was prepared as described in the in vitro SPA for PARP-1 inhibitory activity. Seventy-five μl of the PARP-1 enzyme/DNA mixture together with 1 μl of compound in DMSO and 25 μl of histones-NAD^+/[^32P]-NAD^+ mixture was added per well of a 96-well filterplate (0.45 μm, supplier Millipore). The final concentrations in the incubation mixture were 2 μg/ml for the histones, 0.1 mM for the NAD^+, […] (0.5 μC) for the [^32P]-NAD^+ and 2 μg/ml for the nicked DNA. Plates were incubated for 15 min. at room temperature and the reaction was terminated by the addition of 10 μl ice cold 100% TCA followed by the addition of 10 μl ice-cold BSA solution (1% in H2O). The protein fraction was allowed to precipitate for 10 min. at 4° C. and plates were vacuum filtered. The plates were subsequently washed with, for each well, 1 ml of 10% ice cold TCA, 1 ml of 5% ice cold TCA and 1 ml of 5% TCA at room temperature. Finally 100 μl of scintillation solution (Microscint 40, Packard) was added to each well and the plates were transferred to a TopCountNXT™ (supplier: Packard) for scintillation counting and values were expressed as counts per minute (cpm). For each experiment, controls (containing PARP-1 enzyme and DMSO without compound), a blank incubation (containing DMSO but no PARP-1 enzyme or compound) and samples (containing PARP-1 enzyme and compound dissolved in DMSO) were run in parallel. All compounds tested were dissolved and eventually further diluted in DMSO. In first instance, compounds were tested at a concentration of 10^−5M. […] In each test, the blank value was subtracted from both the control and the sample values. The control sample represented maximal PARP-1 enzyme activity. For each sample, the amount of cpm was expressed as a percentage of the mean cpm value of the controls. When appropriate, IC50-values (concentration of the drug, needed to reduce the PARP-1 enzyme activity to 50% of the control) were computed using linear interpolation between the experimental points just above and below the 50% level. Herein the effects of test compounds are expressed as pIC50 (the negative log value of the IC50−-value). As a reference compound, 4-amino-1,8-naphthalimide was included to validate the filtration assay.

The test system of series [3] is ischemia and reperfusion of the heart. The following applies: rabbits, cited from earlier work.
For the next series, the system named is colitis. The following applies: rats, colitis induced by intraluminal trinitrobenzene sulfonic acid in 50% ethanol; cited from earlier work.

Where a name gives a salt, the structure may show the parent alone.

T1 sequence (P09874 whole entry): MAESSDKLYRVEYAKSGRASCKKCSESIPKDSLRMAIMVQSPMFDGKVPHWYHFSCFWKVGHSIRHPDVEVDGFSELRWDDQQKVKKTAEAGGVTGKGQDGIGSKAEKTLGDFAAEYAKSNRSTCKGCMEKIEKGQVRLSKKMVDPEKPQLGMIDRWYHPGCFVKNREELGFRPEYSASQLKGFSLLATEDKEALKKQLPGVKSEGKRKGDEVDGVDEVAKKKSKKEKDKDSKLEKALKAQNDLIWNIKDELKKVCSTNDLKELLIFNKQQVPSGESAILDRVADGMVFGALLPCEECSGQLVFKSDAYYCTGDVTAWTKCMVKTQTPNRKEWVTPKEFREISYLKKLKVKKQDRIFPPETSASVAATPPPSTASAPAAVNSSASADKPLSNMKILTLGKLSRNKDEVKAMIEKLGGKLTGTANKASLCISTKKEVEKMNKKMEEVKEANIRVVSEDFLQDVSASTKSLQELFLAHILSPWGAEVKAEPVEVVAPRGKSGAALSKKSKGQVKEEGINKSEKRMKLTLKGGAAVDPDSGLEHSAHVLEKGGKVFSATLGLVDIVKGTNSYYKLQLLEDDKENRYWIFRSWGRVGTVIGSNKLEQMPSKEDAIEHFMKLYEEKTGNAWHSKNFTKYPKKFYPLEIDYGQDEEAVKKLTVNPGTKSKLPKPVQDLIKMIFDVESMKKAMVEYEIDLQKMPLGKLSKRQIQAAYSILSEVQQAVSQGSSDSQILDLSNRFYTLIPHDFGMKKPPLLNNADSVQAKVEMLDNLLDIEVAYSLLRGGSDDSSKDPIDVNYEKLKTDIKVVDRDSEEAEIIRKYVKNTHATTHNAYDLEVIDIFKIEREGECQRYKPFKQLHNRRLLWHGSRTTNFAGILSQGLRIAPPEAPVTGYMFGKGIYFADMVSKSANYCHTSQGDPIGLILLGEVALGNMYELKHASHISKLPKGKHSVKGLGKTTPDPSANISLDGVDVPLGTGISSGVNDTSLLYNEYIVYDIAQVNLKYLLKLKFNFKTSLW

As for `CCc1nc2ccc(CC(c3ccc(Cl)cc3)N3CCCC3)cc2[nH]c1=O` (stereo not shown) [Compound 7], the IC50 on PARP-1 enzyme [1] is 0.586 µM. For the molecule `CCc1nc2ccc(C(c3ccc(Cl)cc3)N3CCCCC3)cc2[nH]c1=O` (stereo not shown) [Compound 5], the figures for the IC50 at PARP-1 enzyme [1] and on PARP-1 enzyme [2] were 0.236 µM and 0.693 µM, respectively. The like results for `CCc1nc2ccc(C(c3ccccc3F)n3ccnc3)cc2[nH]c1=O` (stereo not shown) [Compound 13] were, in that order, 0.718 µM and 4.94 µM.

With `CCc1nc2ccc(C(c3ccccc3)c3cccnc3)cc2[nH]c1=O` (stereo not shown) [Compound 16], the IC50 was 0.577 µM at PARP-1 enzyme [1] and 4.53 µM at PARP-1 enzyme [2]. For the molecule `CCc1nc2ccc(CC(O)c3ccccc3)cc2[nH]c1=O` (stereo not shown) [Compound 11], the IC50 on PARP-1 enzyme [1] was 0.914 µM.

For the molecule `CCc1nc2ccc(C(c3ccccc3)N3CCC(NCCOC)CC3)cc2[nH]c1=O` (stereo not shown) [Compound 2], the IC50 on PARP-1 enzyme [1] is 0.0075 µM.

The molecule `CCc1nc2ccc(CC(c3ccccc3)n3ccnc3)cc2[nH]c1=O` (stereo not shown) [Compound 1] registered a melting point of 166 °C. Also, the IC50 on PARP-1 enzyme [1] is 0.206 µM. The like results for `CCc1nc2ccc(C(O)c3ccccc3)cc2[nH]c1=O` (stereo not shown) [Compound 4] were, in that order, 202 °C and 0.409 µM. For the molecule `CCc1nc2ccc(CC(c3ccc(Cl)cc3)n3ccnc3)cc2[nH]c1=O` (stereo not shown) [Compound 15], the IC50 at PARP-1 enzyme [1] was 0.329 µM; on PARP-1 enzyme [2] it was 6.38 µM. The like results for `CCc1nc2ccc(C(c3ccccc3)n3ccnc3)cc2[nH]c1=O` (stereo not shown) [Compound 19] were, in that order, 0.231 µM and 0.615 µM. As for `Cc1nc2ccc(C(c3ccc(Cl)cc3)n3ccnc3)cc2[nH]c1=O` (stereo not shown) [Compound 20, 7-[(4-chlorophenyl)-1H-imidazol-1-ylmethyl]-3-methyl-2(1H)-quinoxalinone], the IC50 on PARP-1 enzyme [1] was 4.11 µM; at PARP-1 enzyme [2] it was > 10 µM. For `CCc1nc2ccc(C(c3cccc(F)c3)n3ccnc3)cc2[nH]c1=O` (stereo not shown) [Compound 12] the same measures were 0.728 µM and 3.6 µM. For the molecule `CCc1nc2ccc(C(c3ccccc3)n3cncn3)cc2[nH]c1=O` (stereo not shown) [Compound 17], on PARP-1 enzyme [1], the IC50 was 0.334 µM. Same read-out and setting: in the case of `CCOC(=O)C1CCN(C(c2ccc(Cl)cc2)c2ccc3nc(CC)c(=O)[nH]c3c2)CC1` (stereo not shown) [Compound 6] it was 0.818 µM.

As to `Cc1nc2ccc(C(c3ccc(C(C)C)cc3)n3ccnc3)cc2[nH]c1=O` (stereo not shown) [Compound 8], the IC50 at PARP-1 enzyme [1] is 0.411 µM; at PARP-1 enzyme [2] it was 1.41 µM. For `CCc1nc2ccc(C(c3ccc(F)cc3)n3ccnc3)cc2[nH]c1=O` (stereo not shown) [Compound 18], the IC50 was 1 µM on PARP-1 enzyme [1] and 4.13 µM on PARP-1 enzyme [2]. As for `CCc1nc2ccc(C(c3ccccc3)N3CCC(NCCOC)CC3)cc2[nH]c1=O` (stereo not shown) (as salt: salt) [Compound 2], the melting point is 98 °C. With `NC(=O)c1cccc(N)c1` [3-amino-benzamide], in series [3] (single injection 10 mg/kg, one minute before occlusion or one minute before reperfusion), the “reduction in infarct size in the heart” value is 32-42%. Moreover, the “effect on inflammatory response, distal colon” value with colitis is “reduced the inflammatory response”. `Cc1cc2ccc(C(CCN(C)C)c3ccccc3)cc2[nH]c1=O` (stereo not shown) [Compound 3]: the values for the IC50 on PARP-1 enzyme [1] and on PARP-1 enzyme [2] were 0.899 µM and 9.89 µM, respectively. Turning to `CCc1nc2ccc(C(NCCCN(C)Cc3ccccc3)c3ccccc3)cc2[nH]c1=O` (stereo not shown) [Compound 9], the IC50 at PARP-1 enzyme [1] was 0.312 µM.

Turning to `CCc1nc2ccc(CC(O)c3ccc(Cl)cc3)cc2[nH]c1=O` (stereo not shown) [Compound 10], the IC50 at PARP-1 enzyme [1] is 0.552 µM. As for `Oc1cccc2c(O)nccc12` [1,5-dihydroxyisoquinoline], the “reduction in infarct size” value in series [3] (single injection 1 mg/kg) is 38-48%. For the molecule `CCc1nc2ccc(C(c3ccccc3)n3cccn3)cc2[nH]c1=O` (stereo not shown) [Compound 14], the values for the IC50 at PARP-1 enzyme [1] and at PARP-1 enzyme [2] were 1.6 µM and 2.67 µM, respectively.
